Patent publication US8501693B2, “Use of exendins and exendin agonists and GLP-1 receptor agonists for altering the concentration of fibrinogen” (Amylin Pharmaceuticals, LLC, priority 2006, dated 2013)

Assays:
[1] = tested on: lipoprotein subclass particles (LDL, HDL, VLDL); experiment: Lipoprotein subclass particle concentration and particle size by proton NMR in the 1-year open-label exenatide vs biphasic insulin aspart trial; assay type: in vivo, human; settings: change from baseline to endpoint
Method: Lipoprotein subclass particle concentrations and average particle diameters are measured using proton nuclear magnetic resonance spectroscopy.
The particle concentrations of different lipoprotein subclasses are obtained by measuring the amplitudes of the characteristic lipid methyl NMR signals. The signal amplitudes of various subclasses are extracted from the overall lipid methyl group signal with a spectral deconvolution algorithm (LipoScience, Inc.). See e.g., Festa. VLDL and LDL particle concentrations are given in nanomoles per liter. HDL particle concentrations are provided in micromoles per liter.
Average particle sizes (in nanometers diameter) are computed as the sum of the diameter of the particle subclass multiplied by the relative mass percentage of the subclass as estimated from the amplitude of its methyl NMR signal.
Particle concentrations and sizes are compared before and after administration of an exendin or exendin agonist. See e.g., Table 1.

Fibrinogen = Fibrinogen concentration by the von Clauss clotting method in the 1-year open-label exenatide vs biphasic insulin aspart trial; assay type: in vivo, human; settings: patients with type 2 diabetes
Method: For test meal data, postprandial glucose incremental AUC0-4h is calculated at baseline and week 52.
Fibrinogen activity is measured by the von Clauss clotting method. By the von Clauss clotting method, thrombin is added to a test sample and the time until clotting is measured. Fibrinogen concentration is determined by comparing clotting time for the test sample to the clotting time of a standard curve for various reference plasmas.
Fibrinogen is measured at baseline, Week 16, Week 52, or at early termination of the study.

[2] = patients with type 2 diabetes, fasting
[3] = particle concentration, patients with type 2 diabetes

Substance: biphasic insulin aspart 30/70
- LDL Particle Size Δ mean (SEM) ([1]; patients with type 2 diabetes inadequately controlled by sulphonylurea and metformin, fasting): +0.11 (0.12) p = .356 nm
- HDL Particle Size Δ mean (SEM) [1, 2]: +0.04 (0.05) p = .391 nm
- VLDL Particle Size Δ mean (SEM) [1, 2]: −1.6 (2.2) p = .482 nm
- Large HDL Δ mean (SEM) [1, 3]: +1.0 (0.4) p = .014 μmol/L
- Large LDL Δ mean (SEM) [1, 3]: +37.7 (32.8) p = .258 nmol/L
- Small LDL Δ mean (SEM) [1, 3]: −25.8 (81.2) p = .753 nmol/L
- Small VLDL Δ mean (SEM) [1, 3]: +8.5 (4.2) p = .049 nmol/L
- Total HDL Δ mean (SEM) [1, 3]: +2.5 (0.9) p = .012 μmol/L
- Total LDL Δ mean (SEM) [1, 3]: +5.0 (75) p = .947 nmol/L
- Total VLDL Δ mean (SEM) [1, 3]: +12.9 (6.6) p = .056 nmol/L
- Very Small LDL Δ mean (SEM) [1, 3]: −17.0 (64.6) p = .794 nmol/L
- Fibrinogen level, Mean, Baseline (Fibrinogen; Baseline (before treatment) of the treatment group): 4.22 g/L
- Fibrinogen level, Mean, Endpoint (LOCF) (Fibrinogen; Endpoint, last post-baseline measurement carried forward (Week 16, Week 52 or early termination)): 4.16 g/L
